Results published in patent publication US4185119A, “Antiallergic methods” (priority 1977, dated 1980).
Counter-ions that a name gives are not always drawn.

Key:
[1] = test system: P.C.A. reaction in S.D. strain rats; assay: Inhibition test of P.C.A. (Passive Cutaneous Anaphylaxis) reaction in S.D. strain rats, rat reaginic antiserum against egg albumin; format: in vivo
Method: (a) Rat reaginic antiserum against egg albumin
A solution of egg albumin (2 mg) in B. pertussis-diphtheria-tetanus mixed vaccine (1 ml.) (made by Takeda Chemical Industries Ltd.) was mixed with an equal volume of incomplete adjuvant (made by Difco Laboratories) to give an emulsion. The emulsion was given subcutaneously in a single dose of 1 ml. divided equally (0.25 ml.) to the four foot pads of male S.D. (Sprague-Dawley) strain rats aged 8 weeks, each weighing about 300 g.
Five days after the administration, a solution of egg albumin (0.5 mg.) in B. pertussis-diphtheria-tetanus mixed vaccine (0.5 ml.) was further given intramuscularly in a single dose of 0.5 ml. divided equally (0.25 ml.) to 2 places of thigh of the same rats.
Three days after the second administration, blood samples were collected from femoral artery of the rats and allowed to stand at ambient temperature for 5 hours. The separated supernatant was centrifuged at 4° C. (10,000 r.p.m.× 1 hour). The antisera thus obtained were stored at -80° C. prior to use.
(2) Inhibition test of P.C.A. (Passive Cutaneous Anaphylaxis) reaction
(a) Inhibitory effect on P.C.A. reaction in S.D. strain rats
Fifteen male S.D. strain rats aged 8 weeks, each weighing about 270 g were divided equally into 3 groups.
A rat reaginic antiserum (0.07 ml.) as prepared by the above (1)-(a) was given intracutaneously to the depilated back of each rat of Group I and Group II. On the other hand, a rat normal serum (0.07 ml.) was given intracutaneously to the depilated back of each rat of Group III, respectively.
Thirty hours after the administration, a normal saline (0.5 ml.) containing egg albumin (7.5 mg.) and Evans blue (2.5 mg.) was intravenously given to each rat of Groups I-III in order to bring about P.C.A., respectively.
Beforehand, 3 hours, 1 hour and […] before the intravenous administration to bring about P.C.A., a normal saline (1 ml.) containing the prescribed amount of N-methyllaurotetanine hydrochloride and carboxymethylcellulose (0.5 %) was given orally, intraperitoneally or intravenously to each rat of Group I and a normal saline (1 ml.) containing only carboxymethylcellulose (0.5% was also given orally, intraperitoneally or intravenously to each rat of Group II.
Thirty minutes after challenge with antigen, the animals were sacrificed and then skinned. To each of the sensitized spots punched, was added a mixture (7 ml.) of acetone and 2% aqueous sodium alkylbenzenesulfonate solution (4:1) and then the mixture was homogenized. The homogenate was shaken at ambient temperature for 2 hours and filtered. Optical density at 620 nm of the filtrate was determined and from the value of the optical density, inhibitory effect of P.C.A. reaction was calculated by using the following equation. [formula] A: Optical Density Value of Group II B: Optical Density Value of Group I
C: Optical Density Value of Group III

[2] = Acute toxicity in mice; conditions: mouse, in vivo, ip; intraperitoneal, male I.C.R. mice, survivals at one week
Method: Test: Acute Toxicity in Mice
A normal saline containing each of the test compound mentioned below and 0.5% carboxymethylcellulose was given intraperitoneally to male I.C.R. (Institute of Cancer Research) strain mice aged 5 weeks, weighing 33-35 g. LD50 values were calculated from the survivals of mice at one week after the administration of the test compound.

[3] = test system: P.C.A. reaction in I.C.R. strain mice; assay: Inhibition test of P.C.A. reaction in I.C.R. strain mice, rat hyperimmune antiserum against egg albumin; format: in vivo; conditions: I.C.R. mouse (Table 3-I)
Method: (c) Inhibition test of P.C.A. reaction in I.C.R. (Institute of Cancer Research) strain mice
(i) Test compound: N-methyllaurotetanine hydrochloride
Fifteen male I.C.R. strain mice aged 7 weeks, weighing about 35 g were divided equally into 3 groups. Each of the groups was composed of 5 mice, (in case of intraperioneal administration of the test compound to the mouse, each of the groups was composed of […]).
Ten-hold diluted solution (0.05 ml.) of the rat hyperimmune antiserum against egg albumin was given intracutaneously to the depilated back of each mouse of Group I and Group II, respectively. On the other hand, a rat normal serum (0.05 ml.) was given intracutaneously to the depilated back of each mouse of Group III. Three hours after the administration, a normal saline (0.1 ml.) containing egg albumin (1.5 mg.) and Evans blue (0.5 mg.) was given intravenously to each mouse of Groups I-III in order to bring about P.C.A., respectively.
Beforehand, 3 hours and 1 hours before the admnistration to bring about P.C.A., a normal saline (0.3 ml.) containing the prescribed amount of N-methyllaurotetanine hydrochloride and carboxymethylcellulose (0.5%) was given orally or intraperitoneally to each mouse of Group I, and a normal saline (0.3 ml.) containing only carboxymethylcellulose (0.5%) was given orally or intraperitoneally to each mouse of Group II.
The procedure followed by the above, was carried out in substantially the same manner as described in the above item (2)-(a). […]

Question: With `COc1cc2c(cc1O)CC1c3c(cc(OC)c(OC)c3-2)CCN1C` (stereo not shown) [N-Methyllaurotetanine hydrochloride] as the compound, how does the “Inhibitory effect on P.C.A. reaction” value ([1]; intraperitoneal, 4 mg/kg) read?
Answer: 6%

Question: What about the “Inhibitory effect on P.C.A. reaction” value ([1]; intraperitoneal, 13 mg/kg) of the same compound?
Answer: 80%

Question: What about the “Inhibitory effect on P.C.A. reaction” value ([1]; intraperitoneal, 40 mg/kg) of the same compound?
Answer: 85%

Question: What about the ED50 ([1]; intravenous) of the same compound?
Answer: 2.5 mg/kg

Question: What about the “Inhibitory effect on P.C.A. reaction” value ([1]; intravenous, 1 mg/kg) of the same compound?
Answer: 24%

Question: And the “Inhibitory effect on P.C.A. reaction” value ([1]; intravenous, 3 mg/kg)?
Answer: 57%

Question: And the “Inhibitory effect on P.C.A. reaction” value ([1]; intravenous, 9 mg/kg)?
Answer: 85%

Question: What about the ED50 ([1]; ip, intraperitoneal) of the same compound?
Answer: 4.8 mg/kg

Question: And the ED50 ([1]; oral)?
Answer: 100 mg/kg

Question: What about the “Inhibitory effect on P.C.A. reaction” value ([1]; oral, 20 mg/kg) of the same compound?
Answer: 16%

Question: And the “Inhibitory effect on P.C.A. reaction” value ([1]; oral, 66 mg/kg)?
Answer: 35%

Question: And the “Inhibitory effect on P.C.A. reaction” value ([1]; oral, 200 mg/kg)?
Answer: 85%

Question: And the LD50 at 168 h [2]?
Answer: 91.7 mg/kg

Question: And the “Inhibitory effect on P.C.A. reaction” value ([3]; intraperitoneal, 3 mg/kg)?
Answer: 50%

Question: And the “Inhibitory effect on P.C.A. reaction” value ([3]; intraperitoneal, 10 mg/kg)?
Answer: 80%

Question: What about the “Inhibitory effect on P.C.A. reaction” value ([3]; intraperitoneal, 30 mg/kg) of the same compound?
Answer: 95%

Question: What about the “Inhibitory effect on P.C.A. reaction” value ([3]; oral, 16 mg/kg) of the same compound?
Answer: 20%

Question: What about the “Inhibitory effect on P.C.A. reaction” value ([3]; oral, 48 mg/kg) of the same compound?
Answer: 50%

Question: And the “Inhibitory effect on P.C.A. reaction” value ([3]; oral, 145 mg/kg)?
Answer: 70%
